Measured values: publication PMC6017655, “In Silico and in Vitro-Guided Identification of Inhibitors of Alkylquinolone-Dependent Quorum Sensing in Pseudomonas aeruginosa” (Molecules : A Journal of Synthetic Chemistry and Natural …, 2018)

Legend:
Format in all cases: cell-based, Pseudomonas aeruginosa
[1] = test system: PqsR (pqsA promoter, PA14 mCTX::PpqsA-lux); test: Whole cell biosensor reporter assay, PA14 mCTX::PpqsA-lux; conditions: Pseudomonas aeruginosa, PA14, read-out: PA14 Remaining Activity %
Protocol: (§1) To determine the ability of the quinolines to inhibit PqsR functionality, the P. aeruginosa biosensor strains, PAO1-L and PA14, incorporating a chromosomal mCTX::PpqsA-lux transcriptional fusion, were used. These report on the activation of the pqsA promoter, regulated by PqsR [25]. PAO1-L and PA14 were chosen because they are genetically amenable and belong to the two major P. aeruginosa genomic groups. The quinolone compounds were incubated with the corresponding strain, and luminescence and optical density readings were recorded to monitor the effect of the quinolines on PqsR activity and bacterial growth, respectively. The compounds were screened at 10 µM concentration, and the activity was compared to a control of DMSO (0.1%) (Figure 3a). To be considered a hit, a threshold of at least 50% inhibition of the test compound, relative to the negative control had to be reached, without affecting bacterial growth. […] Concentration-response experiments were then carried out to determine the IC50 values (Figure 3b,c), which are summarised in Table 1.
(§2) Strains PA14 mCTX::PpqsA-lux and PAO1-L mCTX::PpqsA-lux were constructed using plasmid mini-CTX::PpqsA-lux, as previously described, and the assay was performed according to a published protocol. For screening, the compounds were tested at a concentration of 10 µM, which was prepared from a 10 mM stock, in DMSO.

[2] = test system: PqsR (pqsA promoter, PAO1-L mCTX::PpqsA-lux); test: Whole cell biosensor reporter assay, PAO1-L mCTX::PpqsA-lux; conditions: Pseudomonas aeruginosa, PAO1, read-out: PAO1-L Remaining Activity %
Protocol: as §1, §2

PAO1-L biofilms = test: Biofilm assay on glass coverslips, GFP-labelled PAO1-L; conditions: Ia 34 µM; tobramycin 100 µg/mL for 4 h
Protocol: (§3) One of the clinical challenges of P. aeruginosa infections is the difficulty associated with the effective treatment of biofilms due to their high resistance to antibiotics. […] The effect of Ia, with or without tobramycin, on PA14 and PAO1-L biofilms grown on glass coverslips, was determined. […] The experiment was performed using green fluorescent labelled (GFP)-labelled PAO1-L and PA14 strains, grown under four different conditions: (i) no treatment (control); (ii) compound Ia at 8 µM in PA14 and 34 µM in PAO1-L (concentrations equal to 3× IC50); (iii) tobramycin at 100 µg/mL; (iv) Ia and tobramycin, at the same concentrations as (ii) and (iii).
(§4) Biofilms were cultivated on borosilicate glass coverslips in petri dishes. P. aeruginosa strains, PAO1-L and PA14, were labelled by transformation with plasmid pMMG, which constitutively expresses GFP from the Ptac promoter. Labelled strains were grown at 37 °C, for 16 h, in 2 mL RPMI-1640 (Lonza, Slough, UK), supplemented with 20 mM D-glucose (Sigma–Aldrich, Dorset, UK) and 2 µM FeCl3 (Sigma–Aldrich, Dorset, UK). Cultures were diluted 1:100 in fresh medium and allowed to grow for a further 4 h, or until an OD600 of 0.5 was reached. The mid-logarithmic cultures were diluted to an OD600 of 0.01 in 25 mL RPMI, supplemented with glucose and FeCl3, and inoculated into petri dishes containing UV sterilised borosilicate glass coverslips (22 × 22 mm, thickness no1) (VWR, Lutterworth, UK). Bacterial cells were seeded at 37 °C under static conditions for 1.5 h, and compound Ia was added to the culture at a concentration of 34 µM for P. aeruginosa PAO1-L and 8 µM for PA14 before dishes were moved to a shaker at 60 rpm and 37 °C for 15 h to form mature biofilms. Tobramycin and propidium iodide were added to the 15 h-old cultures at concentrations of 100 µg/mL and 2 µM, respectively, followed by further incubation for 4 h. Coverslips were examined under a Laser Scanning Fluorescent Microscope (LSM2, Zeiss, Oberkochen, Germany). Biofilms were visualised using egfp mode at an excitation wavelength of 488nm. Imaging was carried out using Zen 2011 imaging software (Zeiss, Oberkochen, Germany). A total of 5 Z-stacked images were collected per coverslip. Sampling was conducted at random from the central portion of each coverslip. Biomass was calculated using Image J (NIH, Bethesda, MD, USA) and Comstat 2.1. Software package (www.comstat.dk, lyngby, Denmark).

PA14 biofilms = test: Biofilm assay on glass coverslips, GFP-labelled PA14; conditions: Ia 8 µM; tobramycin 100 µg/mL for 4 h
Protocol: as §3, §4

SMILES	activity at 10 µM [1]	activity at 10 µM [2]	also measured
COc1ccc(C2=NN(C=O)C(c3cccc(Nc4ccnc5cc(Cl)ccc45)c3)C2)cc1 (stereo not shown) [Ic]	102 ± 11.7%	100 ± 8.46%	
Cc1ccc(C2=NN(C=O)C(c3cccc(Nc4ccnc5cc(C(F)(F)F)ccc45)c3)C2)cc1 (stereo not shown) [Ij]	84.9 ± 8.17%	93.7 ± 6.15%	
O=CN1N=C(c2ccc(Br)cc2)CC1c1cccc(Nc2ccnc3cc(C(F)(F)F)ccc23)c1 (stereo not shown) [Io]	80.6 ± 6.26%	68.5 ± 3.43%	
COc1cc(C2=NN(C(C)=O)C(c3cccc(Nc4ccnc5cc(C(F)(F)F)ccc45)c3)C2)cc(OC)c1OC (stereo not shown) [IIl]	103 ± 4.84%	86.1 ± 2.39%	
CC(=O)N1N=C(c2ccc(C)cc2)CC1c1cccc(Nc2ccnc3cc(Cl)ccc23)c1 (stereo not shown) [IIb]	96.2 ± 4.34%	59.5 ± 1.86%	
CC(=O)N1N=C(c2ccc(Br)cc2)CC1c1cccc(Nc2ccnc3cc(C(F)(F)F)ccc23)c1 (stereo not shown) [IIo]	95.6 ± 9.58%	80.8 ± 5.06%	
CC(=O)N1N=C(c2ccc(F)cc2)CC1c1cccc(Nc2ccnc3cc(C(F)(F)F)ccc23)c1 (stereo not shown) [IIm]	99.9 ± 3.17%	90.2 ± 4.4%	
CC(=O)N1N=C(c2ccc3c(c2)OCO3)CC1c1cccc(Nc2ccnc3cc(C(F)(F)F)ccc23)c1 (stereo not shown) [IIp]	99.6 ± 4.09%	71.6 ± 5.07%	
O=CN1N=C(c2ccc(F)cc2)CC1c1cccc(Nc2ccnc3cc(C(F)(F)F)ccc23)c1 (stereo not shown) [Im]	74.9 ± 8.28%	65.1 ± 4.89%	
O=CN1N=C(c2ccc(Br)cc2)CC1c1cccc(Nc2ccnc3cc(Cl)ccc23)c1 (stereo not shown) [Ig]	94.8 ± 8.91%	88.1 ± 6.05%	
COc1cc(C2=NN(C=O)C(c3cccc(Nc4ccnc5cc(C(F)(F)F)ccc45)c3)C2)cc(OC)c1OC (stereo not shown) [Il]	106 ± 15.3%	85.8 ± 2.39%	
Cc1ccc(C2=NN(C=O)C(c3cccc(Nc4ccnc5cc(Cl)ccc45)c3)C2)cc1 (stereo not shown) [Ib]	78.4 ± 6.51%	77 ± 2.25%	
COc1ccc(C2=NN(C(C)=O)C(c3cccc(Nc4ccnc5cc(C(F)(F)F)ccc45)c3)C2)cc1 (stereo not shown) [IIk]	118 ± 5.97%	66.7 ± 0.42%	
NC[C@H]1O[C@H](O[C@H]2[C@H](O)[C@@H](O[C@H]3O[C@H](CO)[C@@H](O)[C@H](N)[C@H]3O)[C@H](N)C[C@@H]2N)[C@H](N)C[C@@H]1O [tobramycin, reference compound]			Effect on biofilm biomass, PAO1-L (PAO1-L biofilms): significantly reduced biofilm biomass; Effect on cell viability in biofilm (propidium iodide), PAO1-L (PAO1-L biofilms): increasing the proportion of dead bacterial cells substantially; Effect on biofilm biomass, PA14 (PA14 biofilms): significantly reduced biofilm biomass; Effect on cell viability in biofilm (propidium iodide), PA14 (PA14 biofilms): increasing the proportion of dead bacterial cells substantially
COc1cc(C2=NN(C=O)C(c3cccc(Nc4ccnc5cc(Cl)ccc45)c3)C2)cc(OC)c1OC (stereo not shown) [Id]	110 ± 15%	130 ± 5.04%	
O=CN1N=C(c2ccc(Cl)cc2)CC1c1cccc(Nc2ccnc3cc(C(F)(F)F)ccc23)c1 (stereo not shown) [In]	93.6 ± 4.45%	61.8 ± 3.97%	
COc1cc(C2=NN(C(C)=O)C(c3cccc(Nc4ccnc5cc(Cl)ccc45)c3)C2)cc(OC)c1OC (stereo not shown) [IId]	110 ± 1.6%	127 ± 9.69%	
O=CN1N=C(c2ccc3c(c2)OCO3)CC1c1cccc(Nc2ccnc3cc(C(F)(F)F)ccc23)c1 (stereo not shown) [Ip]	81.4 ± 9.36%	84.3 ± 5.48%	
CC(=O)N1N=C(c2ccc(C)cc2)CC1c1cccc(Nc2ccnc3cc(C(F)(F)F)ccc23)c1 (stereo not shown) [IIj]	108 ± 6.05%	97.3 ± 6.46%	
CC(=O)N1N=C(c2ccc(Cl)cc2)CC1c1cccc(Nc2ccnc3cc(C(F)(F)F)ccc23)c1 (stereo not shown) [IIn]	98.1 ± 11.4%	97.8 ± 5.52%	
CC(=O)N1N=C(c2ccc(Br)cc2)CC1c1cccc(Nc2ccnc3cc(Cl)ccc23)c1 (stereo not shown) [IIg]	109 ± 2.79%	63.7 ± 5.01%	
COc1ccc(C2=NN(C(C)=O)C(c3cccc(Nc4ccnc5cc(Cl)ccc45)c3)C2)cc1 (stereo not shown) [IIc]	115 ± 2.13%	120 ± 8.28%	
CC(=O)N1N=C(c2ccc(F)cc2)CC1c1cccc(Nc2ccnc3cc(Cl)ccc23)c1 (stereo not shown) [IIe]	120 ± 1.59%	82.6 ± 22.7%	
CC(=O)N1N=C(c2ccc(Cl)cc2)CC1c1cccc(Nc2ccnc3cc(Cl)ccc23)c1 (stereo not shown) [IIf]	103 ± 4.91%	90.2 ± 3.84%	
O=CN1N=C(c2ccc(F)cc2)CC1c1cccc(Nc2ccnc3cc(Cl)ccc23)c1 (stereo not shown) [Ie]	70.4 ± 6.53%	40.6 ± 3.71%	
O=CN1N=C(c2ccc3c(c2)OCO3)CC1c1cccc(Nc2ccnc3cc(Cl)ccc23)c1 (stereo not shown) [Ih]	85.8 ± 9.42%	49.9 ± 12%	
CC(=O)N1N=C(c2ccc3c(c2)OCO3)CC1c1cccc(Nc2ccnc3cc(Cl)ccc23)c1 (stereo not shown) [IIh]	115 ± 6.02%	65.8 ± 5.63%	
COc1ccc(C2=NN(C=O)C(c3cccc(Nc4ccnc5cc(C(F)(F)F)ccc45)c3)C2)cc1 (stereo not shown) [Ik]	99.7 ± 9.37%	78.6 ± 5.75%	
